One data set has as its system Mus musculus. Put plainly: Toxicity in mouse allografted subcutaneously with mouse CT26 cells assessed as mortality at 30 mg/kg, ip qd for 14 days. The data set is classed as organism-based. The following applies: in vivo, 336 h.
Data set [1] can be described thus: Antitumor activity against mouse CT26 cells allografted subcutaneously in mouse assessed as tumor growth inhibition at 25 mg/kg, ip qd for 14 days. Format: functional. The note with it: CT26, 336 h, read-out: TGI.
The target in another data set is T1, Aurora kinase A (Homo sapiens, UniProt O14965).
T1 sequence (O14965 whole entry): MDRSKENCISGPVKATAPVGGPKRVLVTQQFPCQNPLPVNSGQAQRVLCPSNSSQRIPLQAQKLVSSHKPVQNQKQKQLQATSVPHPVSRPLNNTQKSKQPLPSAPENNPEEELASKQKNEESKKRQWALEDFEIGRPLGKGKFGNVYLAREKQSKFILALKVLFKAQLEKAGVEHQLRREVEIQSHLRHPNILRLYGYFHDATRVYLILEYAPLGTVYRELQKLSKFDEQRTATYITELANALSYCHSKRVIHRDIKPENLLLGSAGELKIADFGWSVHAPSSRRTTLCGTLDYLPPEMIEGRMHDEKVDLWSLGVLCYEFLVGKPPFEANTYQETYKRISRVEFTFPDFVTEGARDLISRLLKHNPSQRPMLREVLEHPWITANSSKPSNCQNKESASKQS
Put plainly: Inhibition of recombinant Aurora A kinase derived from human Hela cells using kemptide as substrate in presence of [c-32P]ATP.

The target of a further data set is Cytochrome P450 2C19 (Homo sapiens, UniProt P33261). Kind of data set: Inhibition of CYP2C19 (unknown origin). Format: ADME.
Chain of Cytochrome P450 2C19 (P33261 whole entry): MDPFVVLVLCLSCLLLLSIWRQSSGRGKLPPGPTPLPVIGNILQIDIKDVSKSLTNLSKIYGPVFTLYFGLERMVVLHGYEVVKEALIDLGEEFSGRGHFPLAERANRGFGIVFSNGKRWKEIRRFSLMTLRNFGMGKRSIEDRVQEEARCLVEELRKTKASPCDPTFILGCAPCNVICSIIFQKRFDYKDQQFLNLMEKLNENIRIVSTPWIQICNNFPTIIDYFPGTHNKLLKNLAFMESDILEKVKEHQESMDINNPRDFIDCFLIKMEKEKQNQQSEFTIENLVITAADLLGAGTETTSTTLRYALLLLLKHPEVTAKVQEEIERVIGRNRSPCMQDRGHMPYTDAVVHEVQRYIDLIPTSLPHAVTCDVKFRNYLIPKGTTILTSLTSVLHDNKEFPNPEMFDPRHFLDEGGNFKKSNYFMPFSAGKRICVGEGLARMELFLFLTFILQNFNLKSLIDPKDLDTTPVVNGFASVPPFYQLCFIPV
The target in a further data set is Cytochrome P450 2C9 (Homo sapiens, UniProt P11712). Kind of data set: Inhibition of CYP2C9 (unknown origin). The data set is classed as ADME.
Chain of Cytochrome P450 2C9 (P11712 whole entry): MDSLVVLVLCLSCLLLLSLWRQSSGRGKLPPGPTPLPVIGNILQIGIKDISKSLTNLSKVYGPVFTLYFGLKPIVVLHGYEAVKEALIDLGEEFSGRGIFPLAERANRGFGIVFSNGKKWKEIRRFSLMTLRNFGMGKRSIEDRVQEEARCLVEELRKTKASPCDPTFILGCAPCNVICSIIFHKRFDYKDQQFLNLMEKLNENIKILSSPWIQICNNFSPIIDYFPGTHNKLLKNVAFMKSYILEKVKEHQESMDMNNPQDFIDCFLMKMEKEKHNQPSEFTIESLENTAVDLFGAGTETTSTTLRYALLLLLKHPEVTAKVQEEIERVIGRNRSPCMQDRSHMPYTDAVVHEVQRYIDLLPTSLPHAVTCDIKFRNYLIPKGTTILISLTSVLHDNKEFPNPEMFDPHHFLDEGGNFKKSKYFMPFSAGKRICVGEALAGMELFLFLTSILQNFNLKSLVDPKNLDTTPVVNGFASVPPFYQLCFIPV
The target in another data set is CYP2D6 (Homo sapiens, UniProt P10635). Kind of data set: (§1) Inhibition of CYP2D6 (unknown origin). The data set is classed as ADME.
Chain of CYP2D6 (P10635 whole entry): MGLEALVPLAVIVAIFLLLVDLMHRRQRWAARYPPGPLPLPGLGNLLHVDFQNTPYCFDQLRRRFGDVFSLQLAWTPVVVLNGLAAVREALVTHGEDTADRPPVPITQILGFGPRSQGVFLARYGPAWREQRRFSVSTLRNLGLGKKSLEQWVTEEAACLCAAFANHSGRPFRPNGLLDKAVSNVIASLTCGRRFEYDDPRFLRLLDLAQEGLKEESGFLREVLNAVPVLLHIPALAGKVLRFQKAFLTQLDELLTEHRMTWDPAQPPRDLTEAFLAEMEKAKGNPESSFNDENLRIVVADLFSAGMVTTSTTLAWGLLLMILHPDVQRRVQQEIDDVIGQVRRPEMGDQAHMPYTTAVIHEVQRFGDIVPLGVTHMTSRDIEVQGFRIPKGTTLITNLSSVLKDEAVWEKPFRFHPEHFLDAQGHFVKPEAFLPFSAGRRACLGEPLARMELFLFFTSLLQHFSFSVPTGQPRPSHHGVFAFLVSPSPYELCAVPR
The next data set deals with T2, Cytochrome P450 1A2 (Homo sapiens, UniProt P05177).
T2 sequence (P05177 whole entry): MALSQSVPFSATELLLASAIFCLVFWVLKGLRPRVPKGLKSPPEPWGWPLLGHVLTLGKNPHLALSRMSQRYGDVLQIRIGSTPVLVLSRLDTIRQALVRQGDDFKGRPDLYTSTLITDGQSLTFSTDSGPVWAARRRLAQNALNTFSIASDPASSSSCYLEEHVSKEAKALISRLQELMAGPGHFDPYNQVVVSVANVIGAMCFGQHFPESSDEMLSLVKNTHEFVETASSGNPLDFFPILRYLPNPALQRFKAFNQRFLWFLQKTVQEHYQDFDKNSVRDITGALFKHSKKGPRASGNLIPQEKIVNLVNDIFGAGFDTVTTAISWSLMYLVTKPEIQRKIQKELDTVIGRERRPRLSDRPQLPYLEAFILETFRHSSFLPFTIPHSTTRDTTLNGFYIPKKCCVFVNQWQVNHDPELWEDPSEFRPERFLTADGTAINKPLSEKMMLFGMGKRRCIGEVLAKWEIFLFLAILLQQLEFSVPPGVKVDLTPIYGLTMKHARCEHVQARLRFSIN
Kind of data set: Inhibition of CYP1A2 (unknown origin). The data set is classed as ADME.

A short description of data set [2]: Cytotoxicity against human HCT116 cells assessed as cell growth inhibition. The data set is classed as functional. The following applies: HCT-116.
A further data set addresses Cytochrome P450 3A4 (Homo sapiens, UniProt P08684). Kind of data set: Inhibition of CYP3A4 (unknown origin). The data set is classed as ADME.
In the next data set the target is Cytochrome P450 2D6 (Homo sapiens, UniProt P10635). The description is as §1. The data set is classed as ADME.
Chain of Cytochrome P450 2D6 (P10635 whole entry): as the sequence (P10635 whole entry) above
In the next data set the target is Aurora kinase B (Homo sapiens, UniProt Q96GD4). Put plainly: Inhibition of Aurora 1 kinase (unknown origin).
Chain of Aurora kinase B (Q96GD4 whole entry): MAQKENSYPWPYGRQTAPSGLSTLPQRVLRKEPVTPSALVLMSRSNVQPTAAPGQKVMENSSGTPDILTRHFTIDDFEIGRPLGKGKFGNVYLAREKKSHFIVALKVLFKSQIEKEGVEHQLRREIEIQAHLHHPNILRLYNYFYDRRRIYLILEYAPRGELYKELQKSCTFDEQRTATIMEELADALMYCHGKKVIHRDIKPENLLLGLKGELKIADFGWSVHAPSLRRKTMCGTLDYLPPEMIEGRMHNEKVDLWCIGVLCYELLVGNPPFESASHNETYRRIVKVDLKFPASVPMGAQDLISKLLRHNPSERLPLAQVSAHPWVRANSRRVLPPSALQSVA
Data set [3] has as its target Proto-oncogene tyrosine-protein kinase Src (Homo sapiens, UniProt P12931). Put plainly: Inhibition of cSRC (unknown origin).
Data set [4] concerns the target Fibroblast growth factor receptor 1 (Homo sapiens, UniProt P11362). Put plainly: Inhibition of FGFR1 (unknown origin).
Data set [5] deals with Tyrosine-protein kinase Fyn (Homo sapiens, UniProt P06241). Put plainly: Inhibition of FYN (unknown origin).
Data set [6] addresses Vascular endothelial growth factor receptor 2 (Homo sapiens, UniProt P35968). Kind of data set: Inhibition of KDR (unknown origin).
For data set [7], the target named is Tyrosine-protein kinase Lyn (Homo sapiens, UniProt P07948). Put plainly: Inhibition of LYN (unknown origin).
Chain of Tyrosine-protein kinase Lyn (P07948 whole entry): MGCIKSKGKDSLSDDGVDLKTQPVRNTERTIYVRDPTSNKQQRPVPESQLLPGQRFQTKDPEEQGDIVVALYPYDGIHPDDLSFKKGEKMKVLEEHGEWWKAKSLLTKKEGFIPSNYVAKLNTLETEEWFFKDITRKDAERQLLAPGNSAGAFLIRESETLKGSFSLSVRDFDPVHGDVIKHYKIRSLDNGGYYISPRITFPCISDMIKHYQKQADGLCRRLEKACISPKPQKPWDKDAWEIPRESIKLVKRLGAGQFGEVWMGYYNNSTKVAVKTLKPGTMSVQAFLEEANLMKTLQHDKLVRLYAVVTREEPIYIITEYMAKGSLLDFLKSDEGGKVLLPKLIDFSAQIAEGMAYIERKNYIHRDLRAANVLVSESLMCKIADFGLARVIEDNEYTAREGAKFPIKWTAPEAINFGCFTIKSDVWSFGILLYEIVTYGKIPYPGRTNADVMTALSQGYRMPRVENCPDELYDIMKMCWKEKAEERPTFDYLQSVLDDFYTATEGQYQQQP
Data set [8] addresses Tyrosine-protein kinase Yes (Homo sapiens, UniProt P07947). Put plainly: Inhibition of YES (unknown origin).
Data set [9] is described as follows: Antitumor activity against human HCT116 cells xenografted subcutaneously in mouse assessed as tumor growth inhibition at 30 mg/kg, po qd after 14 days. Format: functional. The following applies: HCT-116, 336 h, read-out: TGI. For orientation: Xenograft models place foreign cells or tissue in a host animal.
A short description of data set [10]: AUC in rat at 30 mg/kg, po. The data set is classed as ADME, organism-based. The note with it: in vivo.
The nature of data set [11]: Tmax in rat at 30 mg/kg, po. The following applies: in vivo. The data set is classed as ADME, organism-based.
Data set [12] in a line: Cmax in rat at 30 mg/kg, po. Format: ADME, organism-based. Also noted: dose 30 mg/kg, route oral. The note with it: in vivo.
Data set [13] is described as follows: Antitumor activity against human PC3 cells xenografted subcutaneously in mouse assessed as tumor growth inhibition at 30 mg/kg, po qd for 14 days. Format: functional. The note with it: PC-3, 336 h, read-out: TGI.
A short description of data set [14]: Antitumor activity against mouse CT26 cells allografted subcutaneously in mouse assessed as tumor growth inhibition at 30 mg/kg, po qd for 14 days. The following applies: CT26, 336 h, read-out: TGI. The data set is classed as functional.
The nature of data set [15]: Antitumor activity against human HCT116 cells xenografted subcutaneously in mouse assessed as tumor growth inhibition at 40 mg/kg, po qd administered on day 1, 5, 9, 13, 16 relative to control. The data set is classed as functional. The following applies: HCT-116, read-out: TGI.
The nature of data set [16]: Antitumor activity against human HCT116 cells xenografted subcutaneously in mouse assessed as tumor growth inhibition at 20 mg/kg, po qd administered on day 1, 5, 9, 13, 16 relative to control. The data set is classed as functional. The note with it: HCT-116, read-out: TGI.

Chain of Cytochrome P450 3A4 (P08684 whole entry): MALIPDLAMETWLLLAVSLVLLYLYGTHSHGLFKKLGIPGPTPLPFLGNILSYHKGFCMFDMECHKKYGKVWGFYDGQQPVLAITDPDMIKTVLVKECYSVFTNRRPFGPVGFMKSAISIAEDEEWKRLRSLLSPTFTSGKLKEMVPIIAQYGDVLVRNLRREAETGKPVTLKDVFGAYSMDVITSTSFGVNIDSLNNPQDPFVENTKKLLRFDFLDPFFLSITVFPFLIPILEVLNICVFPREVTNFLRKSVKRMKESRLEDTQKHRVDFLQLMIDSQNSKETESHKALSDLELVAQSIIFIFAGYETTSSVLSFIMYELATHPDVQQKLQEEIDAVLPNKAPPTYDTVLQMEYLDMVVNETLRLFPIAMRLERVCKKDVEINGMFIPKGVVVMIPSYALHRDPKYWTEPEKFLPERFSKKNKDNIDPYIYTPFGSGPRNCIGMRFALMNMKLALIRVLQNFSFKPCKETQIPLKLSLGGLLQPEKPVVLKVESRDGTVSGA
Chain of Tyrosine-protein kinase Yes (P07947 whole entry): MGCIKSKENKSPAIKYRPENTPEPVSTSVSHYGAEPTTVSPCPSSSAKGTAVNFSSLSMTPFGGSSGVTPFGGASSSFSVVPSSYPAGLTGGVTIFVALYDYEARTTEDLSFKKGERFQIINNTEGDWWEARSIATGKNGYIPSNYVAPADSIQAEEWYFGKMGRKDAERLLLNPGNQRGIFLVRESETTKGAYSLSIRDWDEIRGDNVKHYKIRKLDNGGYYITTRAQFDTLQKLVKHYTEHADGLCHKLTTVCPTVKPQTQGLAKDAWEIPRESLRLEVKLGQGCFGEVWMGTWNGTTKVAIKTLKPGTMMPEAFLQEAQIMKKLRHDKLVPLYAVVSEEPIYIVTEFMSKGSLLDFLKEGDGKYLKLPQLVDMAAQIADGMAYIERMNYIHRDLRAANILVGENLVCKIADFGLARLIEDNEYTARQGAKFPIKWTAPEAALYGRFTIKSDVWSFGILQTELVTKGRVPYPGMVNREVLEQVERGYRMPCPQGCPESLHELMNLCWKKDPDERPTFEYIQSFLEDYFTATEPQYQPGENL
Chain of Vascular endothelial growth factor receptor 2 (P35968 whole entry): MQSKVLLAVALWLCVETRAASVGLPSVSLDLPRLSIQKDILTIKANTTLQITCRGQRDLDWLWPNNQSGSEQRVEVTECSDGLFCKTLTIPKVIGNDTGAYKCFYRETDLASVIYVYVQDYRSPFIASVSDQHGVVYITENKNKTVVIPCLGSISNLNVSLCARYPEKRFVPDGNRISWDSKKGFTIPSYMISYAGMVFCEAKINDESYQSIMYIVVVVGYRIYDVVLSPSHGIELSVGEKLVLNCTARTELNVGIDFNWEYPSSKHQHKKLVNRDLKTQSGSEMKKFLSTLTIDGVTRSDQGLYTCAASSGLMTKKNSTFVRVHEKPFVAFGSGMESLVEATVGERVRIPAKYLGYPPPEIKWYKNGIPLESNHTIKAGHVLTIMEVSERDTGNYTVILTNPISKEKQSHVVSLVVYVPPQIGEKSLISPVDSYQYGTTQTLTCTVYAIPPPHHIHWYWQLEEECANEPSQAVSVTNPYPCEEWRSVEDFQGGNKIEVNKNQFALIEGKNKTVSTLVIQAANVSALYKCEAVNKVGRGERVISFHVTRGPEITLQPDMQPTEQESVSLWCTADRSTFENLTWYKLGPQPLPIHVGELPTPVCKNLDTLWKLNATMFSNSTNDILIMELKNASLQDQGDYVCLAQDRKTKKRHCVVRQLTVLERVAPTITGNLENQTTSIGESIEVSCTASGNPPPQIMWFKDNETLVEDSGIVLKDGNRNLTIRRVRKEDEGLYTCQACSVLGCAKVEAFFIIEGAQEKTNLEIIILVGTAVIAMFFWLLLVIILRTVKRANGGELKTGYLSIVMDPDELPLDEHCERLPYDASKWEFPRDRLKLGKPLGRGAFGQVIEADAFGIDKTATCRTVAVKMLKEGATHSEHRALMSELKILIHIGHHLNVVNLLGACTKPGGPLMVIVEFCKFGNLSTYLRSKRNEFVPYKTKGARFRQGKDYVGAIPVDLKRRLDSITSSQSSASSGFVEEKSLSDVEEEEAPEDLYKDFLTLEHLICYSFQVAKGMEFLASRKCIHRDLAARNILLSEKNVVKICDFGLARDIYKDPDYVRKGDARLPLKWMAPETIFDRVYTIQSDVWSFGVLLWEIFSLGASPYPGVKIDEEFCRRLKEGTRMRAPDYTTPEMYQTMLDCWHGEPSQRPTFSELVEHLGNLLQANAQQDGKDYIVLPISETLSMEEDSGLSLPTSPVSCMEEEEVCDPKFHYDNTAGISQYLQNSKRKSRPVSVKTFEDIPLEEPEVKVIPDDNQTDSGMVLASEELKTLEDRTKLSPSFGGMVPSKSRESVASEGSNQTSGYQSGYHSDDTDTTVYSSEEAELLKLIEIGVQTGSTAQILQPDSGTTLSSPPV

With `CC(=O)O[C@H]1C(=O)[C@@]2(C)[C@H]([C@H](OC(=O)c3ccccc3)[C@]3(O)C[C@H](OC(=O)[C@H](O)[C@@H](NC(=O)c4ccccc4)c4ccccc4)C(C)=C1C3(C)C)[C@]1(OC(C)=O)CO[C@@H]1C[C@@H]2O` [PACLITAXEL], the Activity result in the data set on Mus musculus is reported as “Toxic”. The inhibition in vivo at 25 mg/kg in data set [1] came out at 24.8%.

One may read the Ki as a dissociation constant, usually derived from enzyme kinetics or from competition with a known ligand. By IC50 is commonly meant the concentration at which inhibition is half-maximal. In general, GI50 refers to the concentration that inhibits growth by half. For the molecule `Cc1cc(Nc2cc(C)c(C#N)c(N[C@@H](C)CCCC(C)(C)O)n2)n[nH]1`, on Aurora kinase A, the Ki was below 1 nM. The IC50 at Cytochrome P450 2C19 is below 400 nM; on Cytochrome P450 2C9 it was 1700 nM; at CYP2D6 it was below 50000 nM; against Cytochrome P450 1A2 it was 55000 nM. In addition, the GI50 in data set [2] turned out to be 52 nM.

For `Cc1cc(Nc2cc(C)c(C#N)c(NCCOc3cccnc3C)n2)n[nH]1`, the IC50 on Cytochrome P450 2C19 is 900 nM; against Cytochrome P450 2C9, 2400 nM; against Cytochrome P450 3A4, 1800 nM; against Cytochrome P450 2D6, above 50000 nM; at Cytochrome P450 1A2 it was 5500 nM. For the same molecule, the 50% growth inhibitory concentration (GI50) in data set [2] was 4 nM.

Consider `Cc1cc(Nc2cc(C)c(C#N)c(NCCOc3ccccc3Cl)n2)n[nH]1`, for which the IC50 is below 400 nM at Cytochrome P450 2C19; below 200 nM against Cytochrome P450 2C9; 1200 nM at Cytochrome P450 3A4; 6500 nM at Cytochrome P450 2D6; 500 nM at Cytochrome P450 1A2. The concentration for 50% growth inhibition (GI50) in [2] came to 9 nM.

As for `Cc1cc(Nc2cc(C)c(C#N)c(NCCOc3ccccc3)n2)n[nH]1`, the Ki on Aurora kinase A was 2 nM. Also, the IC50 on Cytochrome P450 3A4 is 1400 nM; against Cytochrome P450 2D6, 7200 nM; on Cytochrome P450 1A2, below 400 nM. Moreover, the GI50 in data set [2] is 11 nM.

On to `Cc1cc(Nc2cc(C)c(C#N)c(NCCOc3ccncc3)n2)n[nH]1`, for which the Ki on Aurora kinase A was 29 nM. Also, the IC50 on Cytochrome P450 3A4 is below 400 nM; against Cytochrome P450 2D6, 2000 nM; on Cytochrome P450 1A2, below 400 nM. For the same molecule, the concentration for 50% growth inhibition (GI50) in data set [2] came out at 120 nM.

On to `CCc1ccc(OCCNc2nc(Nc3cc(C)[nH]n3)cc(C)c2C#N)cn1`, for which the inhibition constant Ki at Aurora kinase A turned out to be 6 nM. In addition, the half-maximal inhibitory concentration (IC50) against Cytochrome P450 2C19 is 800 nM; on Cytochrome P450 2C9, 1400 nM; against Cytochrome P450 3A4, 1600 nM; against Cytochrome P450 2D6, 46000 nM; at Cytochrome P450 1A2, 1400 nM. The 50% growth inhibitory concentration (GI50) in [2] is 66 nM.

For the molecule `Cc1cc(Nc2cc(C)c(C#N)c(NCCOc3cccnc3)n2)n[nH]1`, the half-inhibitory concentration (IC50) at Cytochrome P450 3A4 is below 400 nM; against Cytochrome P450 2D6, 9900 nM; at Cytochrome P450 1A2 it was 700 nM. In addition, in data set [2], the GI50 is 2 nM.

What is called Tmax is the time from dosing to the highest level. A word on the Cmax: it is the peak of the concentration-time curve. With `Cc1ccc(OCCNc2nc(Nc3cc(C)[nH]n3)cc(C)c2C#N)cn1`, the inhibition constant (Ki) on Aurora kinase A amounted to 4 nM; on Aurora kinase B it was 10 nM; in data set [3], 480 nM; in data set [4] it was 80 nM; in data set [5], 80 nM; in data set [6], 590 nM. Besides, the Ki in [7] was found to be 490 nM; in data set [8] it was 79 nM. Moreover, the inhibition in vivo at 30 mg/kg in data set [9] was 81.9%; in data set [13], 85%; in [14], 47.8%. The molecule further came in with an AUC in [10] of 14.6 µg/mL. Moreover, the Tmax in data set [11] turned out to be 15 min. Also, in data set [12], the Cmax amounted to 19600 ng/mL. In addition, the IC50 at Cytochrome P450 2C19 is 4500 nM; at Cytochrome P450 2C9, 4900 nM; on Cytochrome P450 3A4, 4500 nM; at Cytochrome P450 2D6, above 50000 nM; at Cytochrome P450 1A2, 2000 nM. The GI50 in [2] is 1 nM. For the same molecule, in [15], the inhibition in vivo at 40 mg/kg amounted to 71%. Besides, the inhibition in vivo at 20 mg/kg in [16] worked out at 44%.

Regarding `Cc1ccc(OCCNc2nc(Nc3cc(C)[nH]n3)cc(C)c2C#N)c(C)n1`, the half-maximal inhibitory concentration (IC50) is 1700 nM against Cytochrome P450 2C19; 3500 nM at Cytochrome P450 2C9; 1700 nM at Cytochrome P450 3A4; above 50000 nM against Cytochrome P450 2D6; above 50000 nM at Cytochrome P450 1A2. Further, in data set [2], the GI50 came to 37 nM.

Regarding `Cc1cc(Nc2cc(C)c(C#N)c(NCCOc3ccccc3F)n2)n[nH]1`, the Ki at Aurora kinase A is below 1 nM. Also, the IC50 against Cytochrome P450 3A4 was 1600 nM; on Cytochrome P450 2D6 it was 7700 nM; at Cytochrome P450 1A2, below 400 nM. Moreover, the GI50 in data set [2] is 26 nM.

On to `Cc1cc(Nc2cc(C)c(C#N)c(NCCOc3ccccn3)n2)n[nH]1`, for which the IC50 against Cytochrome P450 3A4 is 7200 nM; against Cytochrome P450 2D6, 29000 nM; against Cytochrome P450 1A2, below 400 nM. The 50% growth inhibitory concentration (GI50) in [2] was found to be 67 nM.

These data come from ChEMBL document CHEMBL3871290, “3-Cyano-6-(5-methyl-3-pyrazoloamino) pyridines (Part 2): A dual inhibitor of Aurora kinase and tubulin polymerization” (Bioorg Med Chem Lett, 2016).
